Earlier results on one substance are cited in US20260102351A1, “LYOPHILIZED FORMULATION OF CROFELEMER AND METHODS OF TREATMENT USING THE SAME” (priority 2022, published 2026).

The conditions of the data set: human, in vivo.

On to Crofelemer, for which the “absorption from the GI tract” value is “little or no absorption”, the “systemic bioavailability in humans” value was “virtually no systemic bioavailability” and the tolerability result was “well tolerated”.
